The source made the active and inactive calls.
Experiments:
INS1 = experiment: beta cell apoptosis inhibitors, cytokine rescue, dose response, luminescence, retest (AID 449756); type: functional, cell-based; settings: Rattus norvegicus;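 also: cell death triggered by IL-1 beta plus TNF-alpha plus IFN-gamma mixture; protective hits raise ATP signal compared with cytokine alone wells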
[1] = biological target: T1, Apoptotic protease-activating factor 1 (Homo sapiens, UniProt O14727); type: functional
T1 sequence (O14727 whole entry): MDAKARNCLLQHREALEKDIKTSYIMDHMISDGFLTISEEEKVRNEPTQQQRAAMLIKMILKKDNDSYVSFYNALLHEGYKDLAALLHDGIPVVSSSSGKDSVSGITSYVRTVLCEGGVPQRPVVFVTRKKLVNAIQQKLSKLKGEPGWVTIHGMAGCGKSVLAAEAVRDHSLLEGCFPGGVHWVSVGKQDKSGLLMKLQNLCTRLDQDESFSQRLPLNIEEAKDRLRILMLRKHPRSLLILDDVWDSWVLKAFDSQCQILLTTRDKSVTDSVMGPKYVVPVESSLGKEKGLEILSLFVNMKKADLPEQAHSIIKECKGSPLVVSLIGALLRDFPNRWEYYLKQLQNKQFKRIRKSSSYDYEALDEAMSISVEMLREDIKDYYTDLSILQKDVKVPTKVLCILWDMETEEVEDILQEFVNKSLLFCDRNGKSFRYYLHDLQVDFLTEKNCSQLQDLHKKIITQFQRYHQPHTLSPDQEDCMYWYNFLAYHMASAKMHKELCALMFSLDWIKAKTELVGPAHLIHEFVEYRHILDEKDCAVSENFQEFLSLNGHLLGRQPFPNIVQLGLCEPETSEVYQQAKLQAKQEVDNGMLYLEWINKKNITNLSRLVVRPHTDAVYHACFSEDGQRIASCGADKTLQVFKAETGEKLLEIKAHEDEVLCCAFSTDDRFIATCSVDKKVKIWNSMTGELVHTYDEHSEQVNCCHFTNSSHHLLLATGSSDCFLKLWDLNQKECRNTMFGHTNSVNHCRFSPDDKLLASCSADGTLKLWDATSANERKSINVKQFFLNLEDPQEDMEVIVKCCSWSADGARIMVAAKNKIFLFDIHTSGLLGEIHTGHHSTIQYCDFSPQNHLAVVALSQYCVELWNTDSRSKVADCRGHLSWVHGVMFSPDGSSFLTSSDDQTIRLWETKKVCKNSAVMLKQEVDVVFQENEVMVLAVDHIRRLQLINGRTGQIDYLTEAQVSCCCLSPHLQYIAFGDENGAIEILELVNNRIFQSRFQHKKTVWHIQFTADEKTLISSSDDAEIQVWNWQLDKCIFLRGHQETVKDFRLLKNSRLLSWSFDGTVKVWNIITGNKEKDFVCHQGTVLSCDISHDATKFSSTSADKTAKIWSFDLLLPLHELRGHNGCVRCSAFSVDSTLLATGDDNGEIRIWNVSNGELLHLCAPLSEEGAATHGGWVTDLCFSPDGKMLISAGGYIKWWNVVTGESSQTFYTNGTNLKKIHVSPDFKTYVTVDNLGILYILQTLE

Paired box protein Pax-8 = Paired box protein Pax-8 (Homo sapiens, UniProt Q06710); experiment: inhibitors of PAX8-driven TPO luciferase reporter, dose response, RMG-I cells, cherry-pick (AID 687027); type: functional, cell-based;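 also: luciferase reporter driven by Pax8 target thyroperoxidase promoter measured by SteadyGlo luminescence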
Sequence of Paired box protein Pax-8 (Q06710 whole entry): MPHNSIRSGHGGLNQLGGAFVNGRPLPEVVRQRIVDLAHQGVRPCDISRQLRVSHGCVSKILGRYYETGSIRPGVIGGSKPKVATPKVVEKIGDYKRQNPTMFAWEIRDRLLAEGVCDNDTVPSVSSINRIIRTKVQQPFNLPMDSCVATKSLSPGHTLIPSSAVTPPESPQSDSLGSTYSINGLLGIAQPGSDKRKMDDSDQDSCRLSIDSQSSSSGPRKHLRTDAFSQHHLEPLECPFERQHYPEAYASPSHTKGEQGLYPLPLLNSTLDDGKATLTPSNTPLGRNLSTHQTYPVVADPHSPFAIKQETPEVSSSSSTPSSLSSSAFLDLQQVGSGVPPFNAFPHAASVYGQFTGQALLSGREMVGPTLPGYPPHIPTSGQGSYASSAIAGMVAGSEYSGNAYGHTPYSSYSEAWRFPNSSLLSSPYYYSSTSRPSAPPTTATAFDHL

[2] = biological target: T2, Histone-lysine N-methyltransferase NSD2 (Homo sapiens, UniProt O96028); type: biochemical
T2 sequence (O96028 whole entry): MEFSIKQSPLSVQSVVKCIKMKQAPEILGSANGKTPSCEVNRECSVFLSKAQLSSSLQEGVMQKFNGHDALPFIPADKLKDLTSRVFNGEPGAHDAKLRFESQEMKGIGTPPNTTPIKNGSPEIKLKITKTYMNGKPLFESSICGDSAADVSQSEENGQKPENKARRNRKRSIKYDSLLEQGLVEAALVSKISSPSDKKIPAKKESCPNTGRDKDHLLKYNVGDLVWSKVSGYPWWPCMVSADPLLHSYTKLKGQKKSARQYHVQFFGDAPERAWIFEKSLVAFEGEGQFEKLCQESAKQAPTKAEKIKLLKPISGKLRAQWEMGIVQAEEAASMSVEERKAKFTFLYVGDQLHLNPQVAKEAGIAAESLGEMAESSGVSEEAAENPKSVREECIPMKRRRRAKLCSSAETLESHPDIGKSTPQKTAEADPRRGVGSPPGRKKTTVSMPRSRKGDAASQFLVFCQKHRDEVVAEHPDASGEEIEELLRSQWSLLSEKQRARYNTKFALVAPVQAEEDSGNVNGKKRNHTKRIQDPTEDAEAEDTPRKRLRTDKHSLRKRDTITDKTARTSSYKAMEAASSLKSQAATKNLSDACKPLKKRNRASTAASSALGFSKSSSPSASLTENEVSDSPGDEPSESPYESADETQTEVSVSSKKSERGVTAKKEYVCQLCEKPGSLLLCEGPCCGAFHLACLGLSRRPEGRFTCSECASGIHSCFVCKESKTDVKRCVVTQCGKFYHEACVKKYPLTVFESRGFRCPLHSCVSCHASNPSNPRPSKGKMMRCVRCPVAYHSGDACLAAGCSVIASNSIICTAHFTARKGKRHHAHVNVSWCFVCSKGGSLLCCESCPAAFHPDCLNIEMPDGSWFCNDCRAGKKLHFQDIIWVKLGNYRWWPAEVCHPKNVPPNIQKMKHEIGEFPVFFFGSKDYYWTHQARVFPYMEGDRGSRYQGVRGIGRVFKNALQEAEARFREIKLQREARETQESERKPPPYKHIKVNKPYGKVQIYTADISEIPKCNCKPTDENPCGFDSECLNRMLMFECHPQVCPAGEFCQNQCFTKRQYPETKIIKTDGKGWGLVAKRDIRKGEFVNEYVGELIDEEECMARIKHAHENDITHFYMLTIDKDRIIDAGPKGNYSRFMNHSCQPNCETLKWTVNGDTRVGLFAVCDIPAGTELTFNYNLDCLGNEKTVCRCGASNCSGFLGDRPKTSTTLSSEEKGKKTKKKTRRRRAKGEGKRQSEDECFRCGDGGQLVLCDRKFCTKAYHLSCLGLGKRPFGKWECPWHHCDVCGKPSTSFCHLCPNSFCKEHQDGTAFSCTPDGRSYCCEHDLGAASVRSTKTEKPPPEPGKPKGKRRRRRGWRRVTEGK

[3] = Shn3 3'UTR reporter inhibitors, dose response, cell-based, Clone20 osteoblasts, firefly luciferase, cherry-picked (AID 624132); type: functional;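 also: firefly luciferase luminescence from reporter carrying the Shn3 3'UTR in osteoblasts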
[4] = system: Streptococcus sp. 'group A'; experiment: growth inhibition of control SK(-) GAS strain, dose response, counter-screen for streptokinase expression inhibitor project, luminescence, kanamycin, BacTiterGlo, confirmation (AID 1900); type: functional, organism-based
BJ [5] = experiment: cells; type: functional, cell-based; settings: Homo sapiens
BJ [6] = experiment: cytotoxicity toward Ras-transformed BJeLR fibroblasts, dose response, cell-based, alamar blue fluorescence, cherrypicked samples (AID 2631); type: functional; settings: Homo sapiens;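 also: confirmatory dose-response assay in RAS-dependent BJ fibroblasts engineered with TERT, LT and ST, with cytotoxicity read by fluorescence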
[7] = Luminescence Cell-Based Dose Response HTS to Identify Inhibitors of 5'UTR Stem-Loop Driven Prion Protein mRNA Translation in H4 Neuroglioblastoma Cells. [Related pubchem assays: 1827 (Project Summary), 1813 (Primary HTS)]; type: functional
BJ [8] = experiment: cytotoxicity toward BJ-TERT fibroblasts, dose response, cell-based, RAS-independent, luminescence (AID 1933); type: functional; settings: Homo sapiens
BJ [9] = experiment: cytotoxicity toward BJ-TERT-LT-ST fibroblasts, dose response, cell-based, RAS-independent, luminescence (AID 1935); type: functional; settings: Homo sapiens;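 also: BJ fibroblasts immortalized with TERT plus LT and ST oncogenes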
[10] = cytotoxicity toward DRD oncogenic fibroblasts, dose response, cell-based, non-viral oncogenic, luminescence (AID 1934); type: functional; settings: Homo sapiens
Streptococcus = experiment: Group A Streptococcus viability loss, dose response, counter-screen for streptokinase expression inhibitor project, luminescence, BacTiterGlo (AID 1915); type: functional, organism-based;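 also: potency for reduction of bacterial viability or growth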
[11] = control 3'UTR Renilla luciferase suppression, dose response, counter-screen for Shn3 inhibitor project, cell-based, Clone20-Shn3RL, cherry-picked (AID 624133); type: functional
[12] = HepG2 cell cytotoxicity, dose response, cytotoxicity control for Shn3 inhibitor project, CellTiter-Glo, cherry-picked (AID 624134); type: functional, cell-based
[13] = inhibitors of SNCA 5'UTR-driven reporter translation, confirmation, H4 neuroglioma cells, luminescence (AID 1988); type: functional, cell-based
[14] = microbe, parasite or virus in culture; type: functional; settings: Mycobacterium tuberculosis
[15] = inhibitors of firefly luciferase expression or activity, dose response, H4 neuroglioma cells, luminescence (AID 1990); type: functional, cell-based
[16] = biological target: T3, Microphthalmia-associated transcription factor (Homo sapiens, UniProt O75030); experiment: TRPM1 promoter luciferase signal decrease, dose response, MITF inhibitor project, cell-based, SK-MEL-5, cherry-picked, set 3 (AID 493073); type: functional
T3 sequence (O75030 whole entry): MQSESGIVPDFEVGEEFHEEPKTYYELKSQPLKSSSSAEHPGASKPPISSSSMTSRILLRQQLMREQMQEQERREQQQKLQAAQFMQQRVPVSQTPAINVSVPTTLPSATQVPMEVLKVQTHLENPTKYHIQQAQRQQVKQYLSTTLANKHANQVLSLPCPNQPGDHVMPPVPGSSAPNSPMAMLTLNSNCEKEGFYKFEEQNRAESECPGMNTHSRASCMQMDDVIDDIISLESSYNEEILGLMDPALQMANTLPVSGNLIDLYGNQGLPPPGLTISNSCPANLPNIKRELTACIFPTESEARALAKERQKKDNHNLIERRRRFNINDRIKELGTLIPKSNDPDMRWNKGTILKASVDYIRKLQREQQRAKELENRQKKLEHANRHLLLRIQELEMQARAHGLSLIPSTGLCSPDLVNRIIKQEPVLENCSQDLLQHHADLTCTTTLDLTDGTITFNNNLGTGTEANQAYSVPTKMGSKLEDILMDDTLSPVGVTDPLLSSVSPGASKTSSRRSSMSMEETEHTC

[17] = NIH:OVCAR-3 ovarian cancer cell cytotoxicity, dose response, PAX8 inhibitor project, plate reader, dry powder samples (AID 743044); type: functional, cell-based

Compound: CCCCn1cc[n+](C2=C([N-]S(=O)(=O)c3ccc(Br)cc3)C(=O)c3ccccc3C2=O)c1
- AC50 (INS1): 2.86 µM (active)
- IC50 [1]: 8.28 µM (active)

Compound: CCCCn1c(N)c(N(CCC(C)C)C(=O)COC(=O)c2ccc([N+](=O)[O-])s2)c(=O)[nH]c1=O
- AC50 (Paired box protein Pax-8): 8.14 µM (active)
- AC50 [2]: 12.3 µM (active)

Compound: O=[N+]([O-])c1ccc(O)c(-c2cc(C(F)(F)F)nc(-c3ccccc3)n2)c1
- AC50 [3]: 2.73 µM (active)
- EC50 [4]: 0.104 µM (active)
- AC50 (INS1): 1.05 µM (active)
- EC50 (BJ [5]): 2.95 µM (active)
- EC50 (BJ [6]): 0.571 µM (inconclusive)
- EC50 [7]: 9.13 µM (active)
- EC50 (BJ [8]): 2.44 µM (active)
- EC50 (BJ [9]): 2.14 µM (inconclusive)
- EC50 [10]: 2.96 µM (active)
- EC50 (Streptococcus): 0.254 µM (active)
- AC50 [11]: 0.906 µM (active)
- AC50 [12]: 1.61 µM (active)
- AC50 (Paired box protein Pax-8): 0.811 µM (active)
- EC50 [13]: 8.04 µM (inconclusive)
- CC50 [14]: 0.546 µM (active)
- EC50 [15]: 9.18 µM (active)

Compound: CC(=O)c1cccc(NC(=O)/C=C/c2ccc([N+](=O)[O-])s2)c1
- AC50 [16]: 7.16 µM (active)
- EC50 (BJ [5]): > 150 µM (inconclusive)
- EC50 (BJ [6]): 0.545 µM (inconclusive)
- EC50 (BJ [8]): 4.44 µM (active)
- EC50 (BJ [9]): 4.95 µM (inconclusive)
- EC50 [10]: 5.53 µM (active)

Compound: COCCN1C=C2C(=O)C(C)(OC(=O)CCC(=O)OC)C(=O)C(Br)=C2C=C1c1ccc(OC)cc1 (stereo not given)
- IC50 [1]: 11 µM (active)

Compound: CCN(CC)CCNC(=O)c1ccc(CS(=O)(=O)c2ccccc2C)o1
- AC50 [2]: > 20 µM (inactive)

Compound: N#Cc1ccc(-c2ccc([C@@H]3[C@@H]4CN(C(=O)c5ccc6c(c5)OCO6)C[C@H]3N4)cc2)cc1
- AC50 [17]: 29.1 µM (active)
- AC50 (Paired box protein Pax-8): 8.39 µM (active)

— ChEMBL document CHEMBL1201862, “PubChem BioAssay data set” (2004)
